Data from PubChem BioAssay AID248 (DTP/NCI, 2004).
Toxic doses and inconclusive results are not listed. Rule as the data show it: active = T/C of 150% or more; inactive = T/C below 125%.

System: L1210 leukemia ip in BDF1 mice, survival T/C
Assay: NCI In Vivo Anticancer Drug Screen. Data for tumor model L1210 Leukemia (intraperitoneal) in B6D2F1 (BDF1) mice
Conditions: endpoint: mean survival time, higher = longer survival
Procedure, shortened: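 In this screen, tumor-bearing mice given compound are compared to those given vehicle, and their survival values are reported as a treated-to-control quotient.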

[1] = dose: 100.0 mg/kg/injection, schedule: Q01DX001 (ip), vehicle: saline
[2] = dose: 100.0 mg/kg/injection, schedule: Q04DX003 (ip), vehicle: Klucel (hydroxypropylcellulose) (HPC)
[3] = dose: 200.0 mg/kg/injection, schedule: Q04DX003 (ip), vehicle: Klucel (hydroxypropylcellulose) (HPC)
[4] = dose: 50.0 mg/kg/injection, schedule: Q01DX009 (ip), vehicle: Klucel (hydroxypropylcellulose) (HPC)
[5] = dose: 200.0 mg/kg/injection, schedule: Q01DX009 (ip), vehicle: Klucel (hydroxypropylcellulose) (HPC)
[6] = dose: 200.0 mg/kg/injection, schedule: Q01DX001 (ip), vehicle: saline
[7] = dose: 400.0 mg/kg/injection, schedule: Q01DX001 (ip), vehicle: saline

Measured: T/C

Cc1ccc(OCCOC(=O)COc2ccc(Cl)cc2Cl)cc1C
inactive: dose: 100.0 mg/kg/injection, schedule: Q04DX002 (ip), vehicle: Klucel (hydroxypropylcellulose) (HPC) 102 % of control | dose: 200.0 mg/kg/injection, schedule: Q04DX002 (ip), vehicle: Klucel (hydroxypropylcellulose) (HPC) 97 % of control | dose: 400.0 mg/kg/injection, schedule: Q04DX002 (ip), vehicle: Klucel (hydroxypropylcellulose) (HPC) 102 % of control

Clc1nn2cnnc2c2ccccc12
inactive: dose: 20.0 mg/kg/injection, schedule: Q04DX003 (ip), vehicle: saline 110 % of control

CC1=C[P+](C)(Cc2ccccc2)CC1 (stereo not drawn)
inactive: [1] 100 % of control

c1ccc2c(c1)c1c(n2N2CCCCC2)CCC1
inactive: dose: 100.0 mg/kg/injection, schedule: Q04DX002 (ip), vehicle: saline with Tween-80 90 % of control | dose: 200.0 mg/kg/injection, schedule: Q04DX002 (ip), vehicle: saline with Tween-80 95 % of control

CCCCCCCCCCCCCCCCCCNC(=S)N(C)C
inactive: [2] 89 % of control | [3] 86 % of control | dose: 400.0 mg/kg/injection, schedule: Q04DX003 (ip), vehicle: Klucel (hydroxypropylcellulose) (HPC) 89 % of control

Cc1c(C)c2c(c(C)c1O)CCC(C)(C)O2
inactive: [4] 97 % of control | dose: 100.0 mg/kg/injection, schedule: Q01DX009 (ip), vehicle: Klucel (hydroxypropylcellulose) (HPC) 100 % of control | [5] 103 % of control

ClCCOCCOCCOCCCl
inactive: dose: 75.0 mg/kg/injection, schedule: Q01DX009 (ip), vehicle: saline with Tween-80 97 % of control | dose: 100.0 mg/kg/injection, schedule: Q04DX003 (ip), vehicle: saline with Tween-80 97 % of control | dose: 150.0 mg/kg/injection, schedule: Q01DX009 (ip), vehicle: saline with Tween-80 93 % of control | dose: 200.0 mg/kg/injection, schedule: Q04DX003 (ip), vehicle: saline with Tween-80 106 % of control | dose: 300.0 mg/kg/injection, schedule: Q01DX009 (ip), vehicle: saline with Tween-80 93 % of control | dose: 400.0 mg/kg/injection, schedule: Q04DX003 (ip), vehicle: saline with Tween-80 102 % of control

CCC1(O)CC(OC2CC(N(C)C)C(OC3CC(O)C(OC4CC(O)C(O)C(C)O4)C(C)O3)C(C)O2)c2c(cc3c(c2O)C(=O)c2c(O)ccc(O)c2C3=O)C1C(=O)OC (stereo not drawn)
inactive: dose: 1.6 mg/kg/injection, schedule: Q01DX001 (ip), vehicle: saline 98 % of control | dose: 3.2 mg/kg/injection, schedule: Q01DX001 (ip), vehicle: saline 117 % of control | dose: 6.4 mg/kg/injection, schedule: Q01DX001 (ip), vehicle: saline 108 % of control | dose: 12.8 mg/kg/injection, schedule: Q01DX001 (ip), vehicle: saline 124 % of control

Cc1cc(NS(=O)(=O)c2ccc(N=Nc3c(N)[nH]c(=O)[nH]c3=O)cc2)nc(C)n1
inactive: [1] 115 % of control | [6] 96 % of control | [7] 93 % of control

Cn1ncc2c1C1(C)CCC2C1(C)C (stereo not drawn)
inactive: [4] 89 % of control | [2] 102 % of control | [5] 92 % of control | [3] 107 % of control

COc1ccccc1CN1CCCN(Cc2ccccc2OC)C1c1ccccn1
inactive: dose: 50.0 mg/kg/injection, schedule: Q01DX001 (ip), vehicle: saline 100 % of control | [1] 100 % of control | [6] 100 % of control

Cc1cc(=O)n(CC(=O)O)c2ccccc12
inactive: dose: 50.0 mg/kg/injection, schedule: Q04DX003 (ip), vehicle: Klucel (hydroxypropylcellulose) (HPC) 88 % of control | [1] 100 % of control | [2] 90 % of control | [6] 100 % of control | [7] 98 % of control

NC(Cc1ccccc1)c1nn[nH]n1 (stereo not drawn)
inactive: dose: 55.0 mg/kg/injection, schedule: Q01DX Z (ip), vehicle: methylcellulose (MC) 93 % of control | dose: 83.0 mg/kg/injection, schedule: Q01DX Z (ip), vehicle: methylcellulose (MC) 110 % of control

Cc1nc(N)sc1N=Nc1cc(Br)ccc1Br
inactive: dose: 75.0 mg/kg/injection, schedule: Q01DX001 (ip), vehicle: saline 97 % of control | dose: 150.0 mg/kg/injection, schedule: Q01DX001 (ip), vehicle: saline 114 % of control

O=C(O)CCCN1C/C(=C\c2ccc(Cl)cc2)C(=O)C1=O
inactive: [1] 97 % of control | dose: 100.0 mg/kg/injection, schedule: Q04DX003 (ip), vehicle: saline 98 % of control | [6] 102 % of control | dose: 200.0 mg/kg/injection, schedule: Q04DX003 (ip), vehicle: saline 98 % of control | [7] 107 % of control | dose: 400.0 mg/kg/injection, schedule: Q04DX003 (ip), vehicle: saline 96 % of control
